Experimental data as given in patent publication EP4516289A1, “ANTIVIRAL NASAL SPRAY COMPRISING FAVIPIRAVIR” (SPH Sine Pharmaceutical Laboratories Co., Ltd, priority 2023, dated 2025).
Converted amounts (≈) assume the structure as drawn.

How the values were obtained:
[1] = Solubility and storage stability of aqueous FPV formulations (RP-HPLC on day 0 and day 7); assay type: physicochemical; conditions: for solubility: thermodynamic from solid; for highest starting concentration of dissolved FPV: HPLC day 0, calculated approx. 17 mg/ml
Description: In order to determine the maximum solubility of FPV in water various samples of either raw or micronized FPV powder have been prepared. […] In this experimental set-up, the FPV starting concentration was adjusted to a calculated value of 5 mg/ml. After admixture of all ingredients the experimental samples contained 10 %v/v PEG 400, 2 %wt dexpanthenol, and either a citrate or a phosphate buffer, or a combination of both, adjusted to pH 5.5. The selected saponins were tested each in three concentrations, i.e. escin: 0.10, 0.25 and 0.50% w/v, and glycyrrhizin: 1.0, 2.5 and 5.0% w/v. Glycyrrhizin was applied in the form of dipotassium glycyrrhizinate in this and all other examples. For the quantification of FPV contents in the experimental sample formulations, an RP-HPLC method using a Zorbax Eclipse Plus C18 column from Agilent Technologies was applied and adapted for the present purpose. The results of the storage stability test of the various FPV containing samples are depicted in Table 2. Table 2: Storage stability of different aqueous formulations of 5 mg/ml FPV In an attempt to raise the starting concentration of FPV in a pharmaceutically acceptable aqueous solvent the PEG 400 / FPV stock solution was applied in an amount such as to increase the theoretical / calculated FPV concentration from 5 to about 10mg/ml, more precisely to 9.5mg/ml. After admixture of the predetermined portion of PEG 400 solvent comprising FPV to the aqueous buffer solution the resulting samples contained 10.5 %v/v PEG 400, and 2% dexpanthenol in phosphate buffer pH 5.5. The selected saponins were applied in the following concentrations: escin: 0.01 and 0.05 %w/v; glycyrrhizin: 1.0, 2.5 and 5.0 %w/v. The sample formulations were analyzed by HPLC on day 0 and day 7, the results being depicted in Table 3. Table 3: Storage stability of different aqueous formulations of 9.5 mg/ml FPV In a next step it was tried to even further increase the FPV concentration in the aqueous solvent system. The theoretical FPV starting concentration was adjusted to approximately 17 mg/ml, more precisely to 17.2 mg/ml (raw FPV) and 17.1 mg/ml (micronized FPV), using stock solutions comprising 85.45 mg/ml (raw) and 86.07 mg/ml (micronized) FPV in PEG 400. The final experimental samples contained […] and 2% dexpanthenol in phosphate buffer, pH 5.5, along with varying saponin concentrations: escin 0.10, 0.25 and 0.50 %w/v; glycyrrhizin: 1.0, 2.5 and 5.0 %w/v. The factual - as opposed to the calculated, theoretical - FPV concentrations were determined from the sample preparations by HPLC on day 0 and day 7. Table 4: Storage stability of different aqueous formulations of 17 mg/ml FPV In yet another experimental set-up a possible influence of the organic solvent PEG 400 on the solubility and stability of buffered aqueous sample preparations containing approximately 10 mg/ml FPV was investigated. PEG 400 was used at concentrations of 0, 2.5, 5.0, 7.5 and 10.0 %v/v. The samples were prepared in phosphate buffer, pH 5.5 with 2% dexpanthenol and including at least one of the saponins in the following concentrations: escin 0.01 and 0.05 %w/v; glycyrrhizin 1.0, 2.5 and 5.0 %w/v. […] The FPV contents in the sample preparations were analyzed by HPLC on day 0 and day 7, and the results are depicted in Table 5. In this experiment, only micronized FPV powder was used and was directly added to the aqueous formulations in an amount such as to yield a calculated (theoretical) concentration of 10 mg/ml. […]

[2] = cited from earlier work
[3] = Solubility of micronized FPV in different organic solvents (visual inspection); assay type: physicochemical; conditions: thermodynamic from solid
Source text: In order to check for a possible improvement of FPV solubility in an aqueous solvent, it was decided to follow the protocol of WO2017009480. As a first task it was necessary to find a suitable organic solvent for pre-dissolution of FPV prior to adding the pre-dissolved FPV to the buffered aqueous solvent. The results are depicted in Table 1 Table 1: Solubility of micronized FPV in different organic solvents

NC(=O)c1nc(F)cnc1O [FPV, 6-fluoro-3-hydroxypyrazine-2-carboxamide]
solubility ([1]; 25 °C, pure water, read-out: solubility in an aqueous solution): ~4500 µg/mL
solubility ([1]; aqueous buffer, stable pH 4 to 6, phosphate or citrate buffer system, read-out: solubility in an aqueous solution): > 10000 µg/mL
solubility ([1]; aqueous solution without buffer, 25 °C, water, without buffer, regardless of the amount of FPV added, read-out: maximum solubility of FPV in an aqueous solution): < 5000 µg/mL
highest starting concentration of dissolved FPV ([1]; micronized FPV in phosphate buffer without saponins and without dexpanthenol): 11.7 mg/mL
highest starting concentration of dissolved FPV ([1]; raw FPV in phosphate buffer pH 5.5 including 5 %w/v glycyrrhizin): 11.5 mg/mL
solubility in water [2]: slightly soluble
solubility ([3]; organic solvent or mixture, solvent Glycerol, read-out: Solubility, Visual Inspection Conc.): < 33000 µg/mL
solubility ([3]; organic solvent or mixture, solvent PEG 400, read-out: Solubility, Visual Inspection Conc.): 90000 µg/mL (≈ 573 mM)
solubility ([3]; organic solvent or mixture, solvent PG, read-out: Solubility, Visual Inspection Conc.): < 10000 µg/mL
solubility ([3]; organic solvent or mixture, solvent PPG 400, read-out: Solubility, Visual Inspection Conc.): 25000 µg/mL (≈ 159 mM)
solubility ([3]; solvent AD (distilled water), read-out: Solubility, Visual Inspection Conc.): 5000 µg/mL (≈ 31.8 mM)
